In patent publication US9006388B2, “Covalent attachment of ligands to nucleophilic proteins guided by non-covalent” (priority 2003, dated 2015):

Columns and labels:
trypsin = target: T1, trypsin (Sus scrofa, UniProt P00761); test: Irreversible hapten CAL binding by trypsin; parameters: species or system porcine; details: hapten CAL 100 μM
T1 construct: purchased Sigma type IX

plasma proteins = test: CAL reaction in the presence of human plasma; type: binding; details: human plasma 1% v/v, CAL 10 μM, 1 h
calmodulin = calmodulin (Homo sapiens, UniProt P0DP23); test: Irreversible CAL binding by calmodulin
[1] = system: human polyclonal IgG HS-2; test: Irreversible inhibition of HS-2 IgG-catalyzed [Tyr10-125I]-VIP cleavage; type: biochemical; details: IgG 2 μM preincubated 16 h, unreacted CAL removed
murine splenocytes = test: Hapten CAL I reactivity with spleen cells (microscopy, flow cytometry); type: cell-based, BALB/c mouse
Description: BCR covalent reaction with hapten CALs. hapten CALs such as compound I (FIG. 19) react irreversibly with nucleophilic sites in conventional serine proteases and Abs (3,35,44-47). Methods for synthesis of this compound, preparation of B cells from mice, flow cytometric analysis of binding to the cells and electrophoretic measurement of covalent binding to Ig subunits are described in refs 3,35,48. To evaluate the nucleophilic reactivity expressed on the surface of B cells in the preimmune repertoire (viz., the repertoire developed spontaneously without purposeful immunological challenge), viable splenocytes from BALB/c mice were treated with hapten CAL I. The control compound II is identical in structure to hapten CAL I, except that the phosphonate group is not esterified, which results in loss of covalent reactivity with nucleophilic residues (3,35). […] Flow cytometry confirmed the microscopy results. […] In 3 repeat experiments, the proportion of hapten CAL I-stained cells that were positive for the B cell marker CD19 was 82±4% (FIG. 20B). […] Most of the CAL fluorescence was restricted to the surfaces of the B cells (FIG. 20F).

[2] = system: monoclonal anti-VIP IgG clone c23.5; test: Covalent CAL binding by monoclonal anti-VIP IgG c23.5
gp120 (MN strain) = target: T2, gp120 (MN strain) (Human immunodeficiency virus type 1 group M subtype B, UniProt P05877); test: Irreversible hapten CAL binding by gp120; parameters: species or system HIV
T2 construct: purchased

nine purified proteins = test: Screening of purified proteins for irreversible hapten CAL binding; details: protein 1 μM, CAL 0.5 mM, 16 h, 37° C.
IgG = type: biochemical, human
human IgG = type: binding
[3] = flow cytometry, 100 μM, 4 hours

T1 sequence (P00761 9-231): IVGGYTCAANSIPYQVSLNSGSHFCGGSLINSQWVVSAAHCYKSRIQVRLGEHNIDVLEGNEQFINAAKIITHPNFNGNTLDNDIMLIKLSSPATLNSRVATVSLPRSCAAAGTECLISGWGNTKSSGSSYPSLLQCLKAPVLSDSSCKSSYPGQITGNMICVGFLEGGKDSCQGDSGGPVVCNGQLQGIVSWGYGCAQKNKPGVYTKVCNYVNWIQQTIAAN

inhibition of 3-calmodulin binding (calmodulin; VIP 100 μM, 3 10 μM)	Molecule	velocity of covalent I adduct formation with trypsin (trypsin)	reaction with plasma proteins (plasma proteins)	second-order rate constant for reaction with calmodulin (calmodulin; calmodulin 1 μM, 3 10 μM or 1 0.5 mM, 37° C.)	IC50 [1]	loss of viability of cells (trypan blue exclusion) (murine splenocytes)	proportion of hapten CAL I-stained cells positive for CD19 (murine splenocytes; 3 repeat experiments)	cells displaying intense staining (murine splenocytes; UV microscope, 400 lymphocytes counted, N 3)	cells with fluorescence intensities exceeding compound II-treated cells (murine splenocytes; [3])	subpopulation with very high fluorescence intensity (murine splenocytes; [3])	Vapp values for the two subunits of anti-VIP Ab [2]	Kd (gp120 (MN strain))	first-order rate constant of covalent adduct formation k2 (gp120 (MN strain); pH 7.4, 37° C.)	proteins forming irreversible adducts (nine purified proteins)	inhibition of IgG-catalyzed peptide-MCA cleavage (IgG)	velocity for IgG relative to trypsin (human IgG)	velocity of covalent I adduct formation with IgG (human IgG)
–	N=C(N)c1ccc(C(NC(=O)CCCCCNC(=O)CCCC[C@@H]2SC[C@@H]3NC(=O)N[C@@H]32)P(=O)(Oc2ccccc2)Oc2ccccc2)cc1 (some centres unmarked) [hapten CAL I, Diphenyl N-(6-biotinamidohexanoyl)amino(4-amidinophenyl)methanephosphonate]	11.9±0.6 AAU/min	little or no adduct formation	0.00353 ± 0.000283 M⁻¹ s⁻¹	36 µM	No loss of viability	82±4%	11±2	Seventy nine	14%	nearly equivalent	710 ± 500 µM	0.015 ± 0.007 min⁻¹	Seven of the nine	inhibited	14.5 fold	172.7±14.2 AAU/min
65%	VIP: 28 amino acid peptide, devoid of the phosphonate group [reference compound]	–	–	–	–	–	–	–	–	–	–	–	–	–	–	–	–
